Patent publication US6169181A, “Compounds useful to treat retroviral infections” (Pharmacia & Upjohn Company, priority 1998, dated 2001)
Where two headings read alike, the source gives them in different places.

Key:
HIV-1 protease [1] = target: T1, HIV-1 protease (Human immunodeficiency virus type 1 group M subtype B, UniProt P04585); assay: biochemical
Outline: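 Biotinylated, FITC-labelled peptide substrate cleaved in 0.1 M sodium acetate pH 5.5, 1.0 M NaCl, 0.05% NP-40, room temperature. Filtered labelled product read by fluorescence; nonlinear least-squares fit.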

HIV-1 protease [2] = target: T1, HIV-1 protease; assay: biochemical; conditions: for inhibition at 0.123 µM / inhibition at 0.37 µM / inhibition at 1.1 µM / inhibition at 3.3 µM / inhibition at 10 µM / inhibition at 30 µM: read-out: Protease % Inhib
Outline: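 A substrate biotinylated at the N-terminal arginine and FITC-labelled at the C-terminal lysine was incubated with HIV-1 protease (10 μl of 0.1 μM) and compound for 1 h in the dark at room temperature. Buffer was 0.1 M sodium acetate pH 5.5, 1.0 M NaCl, 0.05% NP-40. Labelled product was separated from substrate using streptavidin beads and filtration, and the fluorescence gave percent inhibition.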

[3] = Table I, read-out: HIV Protease FITC Assay Ki
[4] = Table II, enzyme HIV-1, read-out: FITC KI
[5] = Table II, enzyme HIV-1, DOSE 0.123 (unit not given)
[6] = Table II, enzyme HIV-1, DOSE 0.370 (unit not given)
[7] = Table II, enzyme HIV-1, DOSE 1.100 (unit not given)
[8] = Table II, enzyme HIV-1, DOSE 3.300 (unit not given)
[9] = Table II, enzyme HIV-1, DOSE 10.000 (unit not given)
[10] = Table II, enzyme HIV-1, DOSE 30.000 (unit not given)

Structure (SMILES) | Ki (HIV-1 protease [1]; [3]) | inhibition at 0.123 µM (HIV-1 protease [2]; Table I, Dose 0.123 μM) | inhibition at 0.37 µM (HIV-1 protease [2]; Table I, Dose 0.370 μM) | inhibition at 1.1 µM (HIV-1 protease [2]; Table I, Dose 1.100 μM) | inhibition at 3.3 µM (HIV-1 protease [2]; Table I, Dose 3.300 μM) | inhibition at 10 µM (HIV-1 protease [2]; Table I, Dose 10.000 μM) | inhibition at 30 µM (HIV-1 protease [2]; Table I, Dose 30.000 μM) | other results
CC[C@@H](Cc1ccccc1)c1cc(O)c(C(c2cccc(NS(=O)(=O)c3cn(C)cn3)c2)C2CC2)c(=O)o1 (single isomer, unassigned) [Example 140, N-(3-(R or S)-{Cyclopropyl-[6-(1-(S)-ethylphenethyl)-4-hydroxy-2-oxo-2H-pyran-3-yl]-methyl}-phenyl)-1-methyl-1H-imidazole-4-sulfonamide] | 1.44 nM | – | – | – | – | – | – | PROTEASE % INHIB. (HIV-1 protease [2]; Table I, Dose 0.123 μM): 103.22%; PROTEASE % INHIB. (HIV-1 protease [2]; Table I, Dose 0.370 μM): 96.01%; PROTEASE % INHIB. (HIV-1 protease [2]; Table I, Dose 1.100 μM): 107.37%; PROTEASE % INHIB. (HIV-1 protease [2]; Table I, Dose 3.300 μM): 112.51%; PROTEASE % INHIB. (HIV-1 protease [2]; Table I, Dose 10.000 μM): 112.53%; PROTEASE % INHIB. (HIV-1 protease [2]; Table I, Dose 30.000 μM): 119.14%
CCC[C@@]1(CCc2ccc(F)cc2)CC(O)=C([C@H](c2cccc(NS(=O)(=O)c3cn(C)cn3)c2)C(C)(C)C)C(=O)O1 (single isomer, unassigned) [Example 351, N-[3-{1(S or R)-(4-Hydroxy-5,6-dihydro-2-oxo-6(R or S)-(2-(4-fluorophenyl)ethyl)-6-propyl-2H-pyran-3-yl)-2,2-dimethyl-propyl}phenyl]-1-methyl-1H-imidazole-4-sulfonamide] | – | – | – | – | – | – | – | Ki (HIV-1 protease [1]; [4]): 558 nM; PROTEASE % INHIB. (HIV-1 protease [2]; [5]): < 10%; PROTEASE % INHIB. (HIV-1 protease [2]; [6]): < 10%; PROTEASE % INHIB. (HIV-1 protease [2]; [7]): 25.4%; PROTEASE % INHIB. (HIV-1 protease [2]; [8]): 55.11%; PROTEASE % INHIB. (HIV-1 protease [2]; [9]): 78.53%; PROTEASE % INHIB. (HIV-1 protease [2]; [10]): 90.55%
CCCC1(CCC)CC(O)=C(C(c2cccc(NS(=O)(=O)c3ccc(C#N)cc3)c2)C2CC2)C(=O)O1 (centres unmarked) [Example 50] | 1.78 nM | 101% | 108% | 113% | 112% | 101% | 84.8% | –
CCC(CC1CCCOC1)c1cc(O)c(C(c2cccc(NS(=O)(=O)c3cn(C)cn3)c2)C2CC2)c(=O)o1 (centres unmarked) [Example 145B, N-(3-[Cyclopropyl[4-hydroxy-2-oxo-6-[1-[(tetrahydro-2H-pyran-3-yl)methyl]propyl]-2H-pyran-3-yl]methyl]phenyl]-1-methyl-1H-imidazole-4-sulfonamide] | 1.24 nM | 81.8% | 88.4% | 96.5% | 87.8% | 102% | 84.5% | –
CCC(C1=C(O)C2CCCCCC2OC1=O)c1cccc(NS(=O)(=O)c2ccc(C#N)cn2)c1 (centres unmarked) [Example 372, 5-Cyano-N-[3-[1-(2,4a,5,6,7,8,9,9a-octahydro-4-hydroxy-2-oxocyclohepta[b]pyran-3-yl)propyl]phenyl]-2-pyridinesulfonamide] | – | – | – | – | – | – | – | Ki (HIV-1 protease [1]; [4]): 4 nM; PROTEASE % INHIB. (HIV-1 protease [2]; [5]): 43.52%; PROTEASE % INHIB. (HIV-1 protease [2]; [6]): 86.68%; PROTEASE % INHIB. (HIV-1 protease [2]; [7]): 101.52%; PROTEASE % INHIB. (HIV-1 protease [2]; [8]): 99.56%; PROTEASE % INHIB. (HIV-1 protease [2]; [9]): 97.81%; PROTEASE % INHIB. (HIV-1 protease [2]; [10]): 106.18%
O=c1oc(C(CC2CC2)CC2CC2)cc(O)c1C(c1cccc(NS(=O)(=O)c2nc3ccccc3[nH]2)c1)C1CC1 (centres unmarked) [Example 101, N-(3-{Cyclopropyl-[6-(2-cyclopropyl-1-cyclopropylmethyl-ethyl)-4-hydroxy-2-oxo-2H-pyran-3-yl]-methyl}-phenyl)-1H-benzo-imidazole-2-sulfonamide] | 0.66 nM | 70.2% | 84% | 93.3% | 97% | 102% | 97.3% | –
O=c1oc2c(c(O)c1C(c1cccc(CS(=O)(=O)c3ccccc3)c1)C1CC1)CCCCCC2 (centres unmarked) [Example 10, 3-[Cyclopropyl[3-[(phenylsulfonyl)methyl]phenyl]methyl]-5,6,7,8,9,10-hexahydro-4-hydroxy-2H-Cycloocta[b]pyran-2-one] | – | – | – | – | – | – | – | Ki (HIV-1 protease [1]; read-out: HIV Protease FITC Assay Ki): 5.71 nM; inhibition at 0.123 µM (HIV-1 protease [2]): 102%; inhibition at 0.37 µM (HIV-1 protease [2]): 112%; inhibition at 1.1 µM (HIV-1 protease [2]): 116%; inhibition at 3.3 µM (HIV-1 protease [2]): 119%; inhibition at 10 µM (HIV-1 protease [2]): 129%; inhibition at 30 µM (HIV-1 protease [2]): 130%
CCCC1(CCC)CC(O)=C(C(CC)c2cccc(NS(=O)(=O)c3cccc4cccnc34)c2)C(=O)O1 (single isomer, unassigned) [Example 52, (R or S)-N-[3-[1-(4-Hydroxy-2-oxo-6,6-dipropyl-5,6-dihydro-2H-pyran-3-yl)-propyl]-phenyl]-8-quinolinesulfonamide] | 1.4 nM | – | 87.3% | 92.6% | 97.4% | 97.2% | 88.9% | PROTEASE % INHIB. (HIV-1 protease [2]; Table I, Dose 0.123 μM): 85.08%
CCCC1(CCC)CC(O)=C(C(CC)c2cccc(NS(=O)(=O)c3cccc4cccnc34)c2)C(=O)O1 (centres unmarked) [Example 43, N-[3-[1-(4-hydroxy-2-oxo-6,6-dipropyl-5,6-dihydro-2H-pyran-3-yl)-propyl]-phenyl]-8-quinolinesulfonamide] | 3.65 nM | 85.6% | 99% | 95.7% | 96.7% | 102% | 85.6% | –
CC[C@H](Cc1ccccc1)c1cc(O)c(C(c2cccc(NS(=O)(=O)c3ccccn3)c2)C2CC2)c(=O)o1 (single isomer, unassigned) [Example 141, N-(3-(R or S)-{Cyclopropyl-[6-(1-(R)-ethylphenethyl)-4-hydroxy-2-oxo-2H-pyran-3-yl]-methyl}-phenyl)-2-pyridinesulfonamide] | 1.4 nM | 78.7% | 88.7% | 92% | 88.3% | 97.8% | 98.5% | –
CCC(Cc1ccccc1)c1cc(O)c(C(c2cccc(NS(=O)(=O)c3ccc([N+](=O)[O-])cc3)c2)C2CC2)c(=O)o1 (centres unmarked) [Example 150, N-(3-{Cyclopropyl-[6-(1-ethylphenethyl)-4-hydroxy-2-oxo-2H-pyran-3-yl]-methyl}-phenyl)-4-nitrobenzenesulfonamide] | 5.9 nM | 78.4% | 96.5% | 100% | 103% | 107% | 109% | –
Cn1ccnc1S(=O)(=O)Cc1cccc(C(c2c(O)c3c(oc2=O)CCCCCC3)C2CC2)c1 (centres unmarked) [Example 15, 3-[cyclopropyl[3-[(2-(1-methylimidazoyl)sulfonyl)methyl]phenyl]methyl]-5,6,7,8,9,10-hexahydro-4-hydroxy-2H-cycloocta[b]pyran-2-one] | 2.8 nM | 77.6% | 88.5% | 92.4% | 94% | 95.8% | 99.2% | –
N#Cc1ccc(S(=O)(=O)Cc2cccc(C(c3c(O)c4c(oc3=O)CCCCCC4)C3CC3)c2)cc1 (centres unmarked) [Example 11, 3-[cyclopropyl[3-[(4-cyanophenylsulfonyl)methyl]phenyl]methyl]-5,6,7,8,9,10-hexahydro-4-hydroxy-2H-cycloocta[b]pyran-2-one] | 1.9 nM | 78.9% | 95.3% | 100% | 95.1% | 99.7% | 104% | –
CCCC1(CCC)CC(O)=C(C(c2cccc(NS(=O)(=O)c3cn(C)cn3)c2)C2CC2)C(=O)O1 (single isomer, unassigned) [Example 57] | 0.36 nM | – | – | – | – | – | – | PROTEASE % INHIB. (HIV-1 protease [2]; Table I, Dose 0.123 μM): 99.07%; PROTEASE % INHIB. (HIV-1 protease [2]; Table I, Dose 0.370 μM): 105.17%; PROTEASE % INHIB. (HIV-1 protease [2]; Table I, Dose 1.100 μM): 110.68%; PROTEASE % INHIB. (HIV-1 protease [2]; Table I, Dose 3.300 μM): 97.8%; PROTEASE % INHIB. (HIV-1 protease [2]; Table I, Dose 10.000 μM): 104.74%; PROTEASE % INHIB. (HIV-1 protease [2]; Table I, Dose 30.000 μM): 115.02%
